Assay results reported in patent US11739101B2, “Bifunctional degraders of hematopoietic progenitor kinase and therapeutic uses thereof” (Nurix Therapeutics, Inc., priority 2020, dated 2023).

What follows are compounds tested against T1, HPK1 (Homo sapiens, UniProt Q92918) (assay: HPK1 Cellular HiBiT Degradation Assay). Conditions: HiBiT-tagged HPK1 Jurkat cells, 24 hours, 10 uM to 0.1 nM; Dmax = 100 minus lowest % HPK1 remaining vs DMSO vehicle.
T1 construct: A HiBiT tag was introduced by CRISPR on the N terminus of HPK1 in Jurkat cells; host or cells: Jurkat (ATCC TIB-152), monoclonal CRISPR HiBiT knock-in line
Type: cell-based
In short: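 Jurkat cells with CRISPR N-terminal HiBiT-tagged HPK1 were exposed to an 11-point 3.16-fold dilution series, 10 uM to 0.1 nM final, for 24 hours at 37° C./5% CO2. HPK1 was read by HiBiT lytic luminescence against DMSO as 100% and parental cells as background. Dmax is 100 minus the lowest % remaining from a four-parameter fit, with a parallel CellTiter-Glo viability check.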

T1 sequence (Q92918 whole entry): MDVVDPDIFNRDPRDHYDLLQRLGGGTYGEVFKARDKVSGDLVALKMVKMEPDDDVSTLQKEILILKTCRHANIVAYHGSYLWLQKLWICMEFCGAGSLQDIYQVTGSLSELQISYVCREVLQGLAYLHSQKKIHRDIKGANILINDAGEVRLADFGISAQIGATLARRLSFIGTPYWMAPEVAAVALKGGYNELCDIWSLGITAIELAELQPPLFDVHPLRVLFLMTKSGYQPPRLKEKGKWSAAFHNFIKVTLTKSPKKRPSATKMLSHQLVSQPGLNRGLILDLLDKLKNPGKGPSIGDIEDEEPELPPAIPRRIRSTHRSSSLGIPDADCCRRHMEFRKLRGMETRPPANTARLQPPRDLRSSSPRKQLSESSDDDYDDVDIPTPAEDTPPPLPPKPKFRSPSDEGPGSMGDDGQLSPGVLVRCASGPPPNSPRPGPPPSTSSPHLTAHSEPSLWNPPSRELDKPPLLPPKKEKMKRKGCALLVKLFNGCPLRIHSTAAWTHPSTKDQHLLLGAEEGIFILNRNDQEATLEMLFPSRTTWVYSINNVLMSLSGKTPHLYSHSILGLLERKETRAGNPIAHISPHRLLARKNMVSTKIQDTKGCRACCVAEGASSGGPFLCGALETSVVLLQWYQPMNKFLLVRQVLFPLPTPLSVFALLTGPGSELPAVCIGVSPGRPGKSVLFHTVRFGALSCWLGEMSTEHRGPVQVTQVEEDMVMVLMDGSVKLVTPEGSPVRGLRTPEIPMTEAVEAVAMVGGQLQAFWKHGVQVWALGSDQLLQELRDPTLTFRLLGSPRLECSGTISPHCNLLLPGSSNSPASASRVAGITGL

| SMILES | Dmax [%] |
| --- | --- |
| Cc1cc(F)c(Nc2nc(-c3ccc4c(c3)N([C@H]3C[C@@H](N5CCCCC5)C3)C(=O)C43CCN(C(=O)C4CCN(Cc5ccc(C(=O)NCCNc6cccc7c6C(=O)N(C6CCC(=O)NC6=O)C7=O)nc5)CC4)CC3)cc3ncn(C(C)C)c23)cc1C(=O)NC(C)C (stereo partly drawn) [Example 89, N-(2-{[2-(2,6-dioxopiperidin-3-yl)-1,3-dioxoisoindol-4-yl]amino}ethyl)-5-[(4-{[6-(4-{[2-fluoro-5-(isopropylcarbamoyl)-4-methylphenyl]amino}-3-isopropylimidazo[4,5-c]pyridin-6-yl)-2-oxo-1-[(s,3s)-3-(piperidin-1-yl)cyclobutyl]spiro[indole-3,4′-piperidin]-1′-yl]carbonyl}piperidin-1-yl)methyl]pyridine-2-carboxamide] | > 65 |
| Cc1cc(F)c(Nc2nc(-c3ccc4c(c3)N([C@H]3C[C@@H](N5CCCCC5)C3)C(=O)C43CCN(C(=O)c4ccc(OC5CCN(c6ccc7c(c6)C(=O)N(C6CCC(=O)NC6=O)C7=O)CC5)cc4)CC3)cc3ncn(C(C)C)c23)cc1C(=O)NC(C)C (stereo partly drawn) [Example 64, 5-{[6-(1′-{4-[(1-{2-[2,6-dioxopiperidin-3-yl]-1,3-dioxo-2,3-dihydro-1H-isoindol-5-yl}piperidin-4-yl)oxy]benzoyl}-2-oxo-1-[(1s,3s)-3-(piperidin-1-yl)cyclobutyl]-1,2-dihydrospiro[indole-3,4′-piperidin]-6-yl)-3-(propan-2-yl)-3H-imidazo[4,5-c]pyridin-4-yl]amino}-4-fluoro-2-methyl-N-(propan-2-yl)benzamide] | > 65 |
| Cc1cc(F)c(Nc2nc(-c3ccc4c(c3)N([C@H]3C[C@@H](N5CCCCC5)C3)C(=O)C43CCN(C(=O)c4ccc(C(=O)N5CCN(c6ccc7c(c6)C(=O)N(C6CCC(=O)NC6=O)C7=O)CC5C)cc4)CC3)cc3ncn(C(C)C)c23)cc1C(=O)NC(C)C (stereo partly drawn) [Example 72, 5-[(6-{1′-[4-(4-{2-[2,6-dioxopiperidin-3-yl]-1,3-dioxo-2,3-dihydro-1H-isoindol-5-yl}-2-methylpiperazine-1-carbonyl)benzoyl]-2-oxo-1-[(1s,3s)-3-(piperidin-1-yl)cyclobutyl]-1,2-dihydrospiro[indole-3,4′-piperidin]-6-yl}-3-(propan-2-yl)-3H-imidazo[4,5-c]pyridin-4-yl)amino]-4-fluoro-2-methyl-N-(propan-2-yl)benzamide] | > 65 |
| Cc1cc(F)c(Nc2nc(-c3ccc4c(c3)N([C@H]3C[C@@H](N5CCCCC5)C3)C(=O)C43CCN(C(=O)c4ccc(C(=O)N5C6CCC5CN(c5ccc7c(c5)C(=O)N(C5CCC(=O)NC5=O)C7=O)C6)cc4)CC3)cc3ncn(C(C)C)c23)cc1C(=O)NC(C)C (stereo partly drawn) [Example 93, 5-({6-[1′-(4-{3-[2-(2,6-dioxopiperidin-3-yl)-1,3-dioxoisoindol-5-yl]-3,8-diazabicyclo[3.2.1]octane-8-carbonyl}benzoyl)-2-oxo-1-[(1s,3s)-3-(piperidin-1-yl)cyclobutyl]spiro[indole-3,4′-piperidin]-6-yl]-3-isopropylimidazo[4,5-c]pyridin-4-yl}amino)-4-fluoro-N-isopropyl-2-methylbenzamide] | 45 to 65 |
| Cc1cc(F)c(Nc2nc(-c3ccc4c(c3)N([C@H]3C[C@@H](N5CCCCC5)C3)C(=O)C43CCN(C(=O)C[C@H]4CC[C@H](Nc5cccc6c5C(=O)N(C5CCC(=O)NC5=O)C6=O)CC4)CC3)cc3ncn(C(C)C)c23)cc1C(=O)NC(C)C (stereo partly drawn) [Example 80, 5-((6-(1′-(2-((1R,4R)-4-((2-(2,6-dioxopiperidin-3-yl)-1,3-dioxoisoindolin-4-yl)amino)cyclohexyl)acetyl)-2-oxo-1-((1s,3s)-3-(piperidin-1-yl)cyclobutyl)spiro[indoline-3,4′-piperidin]-6-yl)-3-isopropyl-3H-imidazo[4,5-c]pyridin-4-yl)amino)-4-fluoro-N-isopropyl-2-methylbenzamide] | 45 to 65 |
| Cc1cc(F)c(Nc2nc(-c3ccc4c(c3)N([C@H]3C[C@@H](N5CCCCC5)C3)C(=O)C43CCN(C(=O)[C@H]4CCN(C[C@H]5CC[C@H](Nc6cccc7c6C(=O)N(C6CCC(=O)NC6=O)C7=O)CC5)C4)CC3)cc3ncn(C(C)C)c23)cc1C(=O)NC(C)C (stereo partly drawn) [Example 73, 4-fluoro-2-methyl-5-[(6-{2-oxo-1′-[(3R)-1-{[(1R,4R)-4-({2-[2,6-dioxopiperidin-3-yl]-1,3-dioxo-2,3-dihydro-1H-isoindol-4-yl}amino)cyclohexyl]methyl}pyrrolidine-3-carbonyl]-1-[(1s,3s)-3-(piperidin-1-yl)cyclobutyl]-1,2-dihydrospiro[indole-3,4′-piperidin]-6-yl}-3-(propan-2-yl)-3H-imidazo[4,5-c]pyridin-4-yl)amino]-N-(propan-2-yl)benzamide] | > 65 |
| Cc1cc(F)c(Nc2nc(-c3ccc4c(c3)N([C@H]3C[C@@H](N5CCCCC5)C3)C(=O)C43CCN(C(=O)CN4CCN(c5ccc(CC(=O)NCCNc6cccc7c6C(=O)N(C6CCC(=O)NC6=O)C7=O)cc5)CC4)CC3)cc3ncn(C(C)C)c23)cc1C(=O)NC(C)C (stereo partly drawn) [Example 44, 5-({6-[1′-(2-{4-[4-({[2-({2-[2,6-dioxopiperidin-3-yl]-1,3-dioxo-2,3-dihydro-1H-isoindol-4-yl}amino)ethyl]carbamoyl}methyl)phenyl]piperazin-1-yl}acetyl)-2-oxo-1-[(1s,3s)-3-(piperidin-1-yl)cyclobutyl]-1,2-dihydrospiro[indole-3,4′-piperidin]-6-yl]-3-(propan-2-yl)-3H-imidazo[4,5-c]pyridin-4-yl}amino)-4-fluoro-2-methyl-N-(propan-2-yl)benzamide] | 45 to 65 |
| Cc1cc(F)c(Nc2nc(-c3ccc4c(c3)N(C3CC(N5CCCCC5)C3)C(=O)C43CCN(C(=O)[C@@H]4CCN(C(=O)[C@H]5CC[C@H](Oc6cccc7c6C(=O)N(C6CCC(=O)NC6=O)C7=O)CC5)C4)CC3)cc3ncn(C(C)C)c23)cc1C(=O)NC(C)C (stereo partly drawn) [Example 54, 4-fluoro-2-methyl-5-[(6-{2-oxo-1′-[(3R)-1-[(1R,4R)-4-{[2-(2,6-dioxopiperidin-3-yl)-1,3-dioxo-2,3-dihydro-1H-isoindol-4-yl]oxy}cyclohexanecarbonyl]pyrrolidine-3-carbonyl]-1-[(1s,3s)-3-(piperidin-1-yl)cyclobutyl]-1,2-dihydrospiro[indole-3,4′-piperidin]-6-yl}-3-(propan-2-yl)-3H-imidazo[4,5-c]pyridin-4-yl)amino]-N-(propan-2-yl)benzamide] | < 45 |
| Cc1cc(F)c(Nc2nc(-c3ccc4c(c3)N([C@H]3C[C@@H](N5CCCCC5)C3)C(=O)C43CCN(C(=O)CCCCCCCC(=O)N[C@H](C(=O)N4C[C@H](O)C[C@H]4C(=O)N[C@@H](C)c4ccc(-c5scnc5C)cc4)C(C)(C)C)CC3)cc3ncn(C(C)C)c23)cc1C(=O)NC(C)C [Example 10, (2S,4R)-1-((S)-2-(9-(6-(4-((2-fluoro-5-(isopropylcarbamoyl)-4-methylphenyl)amino)-3-isopropyl-3H-imidazo[4,5-c]pyridin-6-yl)-2-oxo-1-((1s,3s)-3-(piperidin-1-yl)cyclobutyl)spiro[indoline-3,4′-piperidin]-1′-yl)-9-oxononanamido)-3,3-dimethylbutanoyl)-4-hydroxy-N—((S)-1-(4-(4-methylthiazol-5-yl)phenyl)ethyl)pyrrolidine-2-carboxamide] | > 65 |
| Cc1cc(F)c(Nc2nc(-c3ccc4c(c3)N([C@H]3C[C@@H](N5CCCCC5)C3)C(=O)C43CCN(C(=O)C4CCN(C(=O)C5CCC(Nc6cccc7c6C(=O)N(C6CCC(=O)NC6=O)C7=O)CC5)C4)CC3)cc3ncn(C(C)C)c23)cc1C(=O)NC(C)C (stereo partly drawn) [Example 26, 4-fluoro-2-methyl-5-[(6-{2-oxo-1′-[1-[(1R,4R)-4-({2-[2,6-dioxopiperidin-3-yl]-1,3-dioxo-2,3-dihydro-1H-isoindol-4-yl}amino)cyclohexanecarbonyl]pyrrolidine-3-carbonyl]-1-[(1s,3s)-3-(piperidin-1-yl)cyclobutyl]-1,2-dihydrospiro[indole-3,4′-piperidin]-6-yl}-3-(propan-2-yl)-3H-imidazo[4,5-c]pyridin-4-yl)amino]-N-(propan-2-yl)benzamide] | 45 to 65 |
| Cc1cc(F)c(Nc2nc(-c3ccc4c(c3)N([C@H]3C[C@@H](N5CCCCC5)C3)C(=O)C43CCN(C(=O)C4CCN(C(=O)[C@H]5CC[C@H](Nc6cccc7c6C(=O)N(C6CCC(=O)NC6=O)C7=O)CC5)CC4)CC3)cc3ncn(C(C)C)c23)cc1C(=O)NC(C)C (stereo partly drawn) [Example 60, 4-fluoro-2-methyl-5-{[6-(2-oxo-1′-{1-[(1R,4R)-4-({2-[2,6-dioxopiperidin-3-yl]-1,3-dioxo-2,3-dihydro-1H-isoindol-4-yl}amino)cyclohexanecarbonyl]piperidine-4-carbonyl}-1-[(1s,3s)-3-(piperidin-1-yl)cyclobutyl]-1,2-dihydrospiro[indole-3,4′-piperidin]-6-yl)-3-(propan-2-yl)-3H-imidazo[4,5-c]pyridin-4-yl]amino}-N-(propan-2-yl)benzamide] | > 65 |
| Cc1cc(F)c(Nc2nc(-c3ccc4c(c3)N([C@H]3C[C@@H](N5CCCCC5)C3)C(=O)C43CCN(C(=O)CN4CCC5(CC4)CN(c4ccc6c(c4)C(=O)N(C4CCC(=O)NC4=O)C6=O)C5)CC3)cc3ncn(C(C)C)c23)cc1C(=O)NC(C)C (stereo partly drawn) [Example 22, 5-[(6-{1′-[2-(2-{2-[2,6-dioxopiperidin-3-yl]-1,3-dioxo-2,3-dihydro-1H-isoindol-5-yl}-2,7-diazaspiro[3.5]nonan-7-yl)acetyl]-2-oxo-1-[(1s,3s)-3-(piperidin-1-yl)cyclobutyl]-1,2-dihydrospiro[indole-3,4′-piperidin]-6-yl}-3-(propan-2-yl)-3H-imidazo[4,5-c]pyridine-4-yl)amino]-4-fluoro-2-methyl-N-(propan-2-yl)benzamide] | < 45 |
